Calls of active or inactive are those of the source. No cut-off for these calls is given here.
Key:
Escherichia coli [1] = experiment: Bactericidal activity against Escherichia coli ATCC 25922 assessed as elimination of bacterial cells at MBC after 5 mins by time kill assay; type: functional
[2] = Cytotoxicity against mouse RAW264.7 cells assessed as cell viability at 4 uM after 18 to 24 hrs by MTT assay relative to control; type: cell-based; conditions: read-out: Activity
[3] = Cytotoxicity against IPECJ2 cells assessed as cell death at 16 uM after 18 to 24 hrs by MTT assay relative to control; type: cell-based, Sus scrofa; conditions: pig
[4] = Hemolytic activity against human RBC at 128 uM after 1 hr; type: ADME, cell-based, Erythrocyte; conditions: red blood cells (erythrocytes), read-out: Activity
HEK-293T = experiment: Cytotoxicity against HEK293T cells assessed as cell death at 32 uM after 18 to 24 hrs by MTT assay relative to control; type: cell-based; conditions: human
Chymotrypsin [5] = molecular target: T1, Chymotrypsin (Homo sapiens, UniProt Q99895+P17538+P40313+Q6GPI1); experiment: Stability of the compound assessed as chymotrypsin (unknown origin)-mediated compound hydrolysis after 4 hrs by SDS-PAGE analysis; type: ADME, protein assay
Escherichia coli [6] = experiment: Bactericidal activity against Escherichia coli ATCC 25922 assessed as elimination of bacterial cells at MBC after 60 mins by time kill assay; type: functional
Escherichia coli [7] = experiment: Induction of membrane disruption in Escherichia coli ATCC 25922 assessed as membrane content leakage at MBC after 1 hr by SEM analysis; type: functional, organism-based
Lipid bilayer [8] = experiment: Induction of membrane disruption in POPC/POPG unilamellar vesicles assessed as calcein-entrapped liposome leakage at 1 to 64 uM after 15 mins by fluorescence assay
Lipopolysaccharide (LPS) [9] = experiment: Displacement of BODIPY-TR-cadaverine from Escherichia coli O111:B4 LPS after 1 hr by spectrofluorophotometric method
[10] = Toxicity in ICR mouse assessed as effect on ALT levels in serum at 40 mg/kg, ip administered every 12 hrs for 3 days measured at 72 hrs post dose; type: organism-based; conditions: in vivo
[11] = Toxicity in ICR mouse assessed as effect on AST levels in serum at 20 mg/kg, ip administered every 12 hrs for 3 days measured at 72 hrs post dose; type: organism-based; conditions: in vivo
Escherichia coli [12] = experiment: Induction of cytoplasmic membrane depolarization in Escherichia coli ATCC 25922 assessed as induction cytoplasmic ONPG release at 2 to 16 uM up to 120 mins by DiSC3-5 dye-based fluorescence spectrophotometric method; type: functional, organism-based
[13] = Cytotoxicity against mouse RAW264.7 cells assessed as survival rate at 16 uM after 18 to 24 hrs by MTT assay relative to control; type: cell-based; conditions: read-out: Activity
Escherichia coli [14] = experiment: Induction of membrane disruption in Escherichia coli ATCC 25922 assessed as pore formation at MBC after 1 hr by TEM analysis; type: functional, organism-based
RAW264.7 [15] = experiment: Inhibition of LPS-stimulated NO production in mouse RAW264.7 cells at 16 uM after 20 hrs by Griess reagent-based assay; type: functional, cell-based
[16] = Stability of the compound assessed as pepsin (unknown origin)-mediated compound hydrolysis by LC-MS analysis; type: ADME; conditions: human
RAW264.7 [17] = experiment: Inhibition of LPS-stimulated TNFalpha production in mouse RAW264.7 cells at 16 uM after 20 hrs by […]; type: functional, cell-based
[18] = Drug localisation at cell membrane of Escherichia coli ATCC 25922 at MBC after 30 mins using FITC-labelled peptides by propidium iodide-staining based confocal fluorescent microscopy; type: ADME, cell membranes; conditions: 0.5 h
Lipopolysaccharide (LPS) [19] = experiment: Binding affinity to Escherichia coli O111:B4 LPS by SPR method
Lipid bilayer [20] = experiment: Induction of membrane disruption in LPS/PC/PG unilamellar vesicles assessed as calcein-entrapped liposome leakage at 2 uM after 15 mins by fluorescence assay
Escherichia coli [21] = experiment: Induction of membrane disruption in Escherichia coli ATCC 25922 assessed as outer membrane separation at MBC after 1 hr by TEM analysis; type: functional, organism-based
[22] = Renal toxicity in ICR mouse assessed as effect on BUN levels in serum at 20 mg/kg, ip administered every 12 hrs for 3 days measured at 72 hrs post dose; type: organism-based; conditions: in vivo
Escherichia coli [23] = experiment: Bactericidal activity against Escherichia coli ATCC 25922 using FITC-labelled peptide incubated for 4 hrs followed by culture spread on agar plates and cultured overnight; type: functional; conditions: ATCC 25922, 4 h
Lipopolysaccharide (LPS) [24] = experiment: Displacement of BODIPY-TR-cadaverine from Escherichia coli O111:B4 LPS at 4 uM after 1 hr by spectrofluorophotometric method relative to control
Escherichia coli [25] = experiment: Induction of membrane disruption in Escherichia coli ATCC 25922 assessed as pore formation at MBC after 1 hr by SEM analysis; type: functional, organism-based
Escherichia coli [26] = experiment: Induction of membrane disruption in Escherichia coli ATCC 25922 assessed as formation of broken membrane fragments at MBC after 1 hr by SEM analysis; type: functional, organism-based
Escherichia coli [27] = experiment: Induction of cytoplasmic membrane depolarization in Escherichia coli ATCC 25922 assessed as induction cytoplasmic ONPG release at 4 uM up to 120 mins by DiSC3-5 dye-based fluorescence spectrophotometric method; type: functional, organism-based
Escherichia coli [28] = experiment: Induction of membrane disruption in Escherichia coli ATCC 25922 assessed as sparse cytoplasmic distribution at MBC after 1 hr by TEM analysis; type: functional, organism-based
[29] = Stability of the compound assessed as Tritirachium album proteinase K-mediated compound hydrolysis by LC-MS analysis; type: ADME; conditions: parengyodontium album
Lipid bilayer [30] = experiment: Induction of membrane disruption in LPS/POPC/POPG unilamellar vesicles assessed as calcein-entrapped liposome leakage after 15 mins by fluorescence assay
[31] = Toxicity in ICR mouse assessed as effect on AST levels in serum at 40 mg/kg, ip administered every 12 hrs for 3 days measured at 72 hrs post dose; type: organism-based; conditions: in vivo
Escherichia coli [32] = experiment: Bactericidal activity against Escherichia coli O111:B4 assessed as reduction in colony forming units at MBC after 90 mins in presence of LPS; type: functional, organism-based
[33] = Renal toxicity in ICR mouse assessed as effect on BUN levels in serum at 40 mg/kg, ip administered every 12 hrs for 3 days measured at 72 hrs post dose; type: organism-based; conditions: in vivo
[34] = Stability of the compound assessed as pepsin (unknown origin)-mediated compound hydrolysis after 1 hrs by SDS-PAGE analysis; type: ADME; conditions: human
Pseudomonas aeruginosa = experiment: Ratio of MBC against Pseudomonas aeruginosa ATCC 27853 after 50 passages to MBC against Pseudomonas aeruginosa ATCC 27853; type: functional
Trypsin = Trypsin (Homo sapiens, UniProt P07477+P07478+P35030); experiment: Stability of the compound assessed as trypsin (unknown origin)-mediated compound hydrolysis after 1 hrs by SDS-PAGE analysis; type: ADME, protein assay
[35] = Stability of the compound assessed as Tritirachium album proteinase K-mediated compound hydrolysis after 1 hrs by SDS-PAGE analysis; type: ADME; conditions: parengyodontium album
Chymotrypsin [36] = molecular target: T1, Chymotrypsin; experiment: Stability of the compound assessed as chymotrypsin (unknown origin)-mediated compound hydrolysis after 1 hrs by SDS-PAGE analysis; type: ADME, protein assay
Escherichia coli [37] = experiment: Bactericidal activity against Escherichia coli ATCC 25922 assessed as elimination of bacterial cells at MBC after 30 mins by time kill assay; type: functional

H-LRPLLRPLLRPLLRPLLRPLLRPLLRPL-NH2
Activity (Escherichia coli [1]): >99.99%
viability at 4 µM [2]: 7.52%
Activity [3]: 80%
hemolysis at 1 h, 128 µM [4]: > 40%
Activity (HEK-293T): 80%
Stability (Chymotrypsin [5]): Unstable

H-IRPIIRPIIRPIIRPIIRPIIRPIIRPI-NH2
Activity (Escherichia coli [6]): >99.99%
Activity (Escherichia coli [7]): Active
Activity (Lipid bilayer [8]): Active
Activity (Lipopolysaccharide (LPS) [9]): Dose-dependent effect
Activity [10]: Non-Toxic
Activity [11]: Toxic
Activity (Escherichia coli [12]): Active
viability at 16 µM [13]: > 80%
Activity (Escherichia coli [14]): Active
inhibition (RAW264.7 [15]): Active
Stability [16]: Stable
inhibition (RAW264.7 [17]): Active
Drug uptake [18]: Active
Activity (Lipopolysaccharide (LPS) [19]): Dose-dependent effect
Activity (Lipid bilayer [20]): 30%
Activity (Escherichia coli [21]): Active
Activity [22]: Toxic
MBC (Escherichia coli [23]): 4 µM
Activity (Lipopolysaccharide (LPS) [24]): 70%
Activity (Escherichia coli [25]): Active
Activity (Escherichia coli [26]): Active
Activity (Escherichia coli [27]): Active
Activity (Escherichia coli [28]): Active
Stability [29]: Stable
Activity (Lipid bilayer [30]): Dose-dependent effect
Activity [31]: Non-Toxic
Activity (Escherichia coli [32]): inactive
Activity [33]: Non-Toxic

CC[C@H](C)[C@H](NC(=O)CN)C(=O)NCC(=O)N[C@@H](C)C(=O)N[C@H](C(=O)N[C@@H](CC(C)C)C(=O)N[C@@H](CCCCN)C(=O)N[C@H](C(=O)N[C@@H](CC(C)C)C(=O)N[C@H](C(=O)N[C@H](C(=O)NCC(=O)N[C@@H](CC(C)C)C(=O)N1CCC[C@H]1C(=O)N[C@@H](C)C(=O)N[C@@H](CC(C)C)C(=O)N[C@H](C(=O)N[C@@H](CO)C(=O)N[C@@H](Cc1c[nH]c2ccccc12)C(=O)N[C@H](C(=O)N[C@@H](CCCCN)C(=O)N[C@@H](CCCNC(=N)N)C(=O)N[C@@H](CCCCN)C(=O)N[C@@H](CCCNC(=N)N)C(=O)N[C@@H](CCC(N)=O)C(=O)N[C@@H](CCC(N)=O)C(N)=O)[C@@H](C)CC)[C@@H](C)CC)[C@@H](C)O)[C@@H](C)O)C(C)C)C(C)C [MELITTIN]
Stability [34]: Unstable
Activity (Escherichia coli [12]): Active
Ratio (Pseudomonas aeruginosa): 256
Stability (Trypsin): Unstable
Stability [35]: Unstable
Stability (Chymotrypsin [36]): Unstable

H-LKPLLKPLLKPLLKPLLKPLLKPLLKPL-NH2
Activity (Escherichia coli [37]): >99.99%
Stability (Chymotrypsin [5]): Unstable

Source: ChEMBL document CHEMBL4316596, “Antimicrobial Peptides with High Proteolytic Resistance for Combating Gram-Negative Bacteria” (J Med Chem, 2019)
